Experimental data taken from article PMC11002996 (Journal of medicinal chemistry, 2023).
One block for each molecule: values may come before it.

Tests used:
[1] = molecular target: NLRP3 inflammasome (Mus musculus, UniProt Q8R4B8); conditions: IL-1β release, LPS/ATP
[2] = earlier work of the authors; cited from earlier work
[3] = tested on: AD animal models; conditions: cited from earlier work
[4] = tested on: priming by LPS (TNF-α); experiment: LPS priming step, TNF-α in J774A.1 culture media by ELISA; format: cell-based, mouse; conditions: concentrations ≤ 3 μM
[5] = molecular target: NLRC4 inflammasome (Mus musculus, UniProt Q3UP24); experiment: Inhibition of NLRC4 inflammasome; format: cell-based; conditions: LPS 1 μg/mL, flagellin 1 μg/mL 6 h; 1 at 3 and 10 μM, 8 at 10 μM
Chain of NLRC4 inflammasome (Q3UP24 whole entry): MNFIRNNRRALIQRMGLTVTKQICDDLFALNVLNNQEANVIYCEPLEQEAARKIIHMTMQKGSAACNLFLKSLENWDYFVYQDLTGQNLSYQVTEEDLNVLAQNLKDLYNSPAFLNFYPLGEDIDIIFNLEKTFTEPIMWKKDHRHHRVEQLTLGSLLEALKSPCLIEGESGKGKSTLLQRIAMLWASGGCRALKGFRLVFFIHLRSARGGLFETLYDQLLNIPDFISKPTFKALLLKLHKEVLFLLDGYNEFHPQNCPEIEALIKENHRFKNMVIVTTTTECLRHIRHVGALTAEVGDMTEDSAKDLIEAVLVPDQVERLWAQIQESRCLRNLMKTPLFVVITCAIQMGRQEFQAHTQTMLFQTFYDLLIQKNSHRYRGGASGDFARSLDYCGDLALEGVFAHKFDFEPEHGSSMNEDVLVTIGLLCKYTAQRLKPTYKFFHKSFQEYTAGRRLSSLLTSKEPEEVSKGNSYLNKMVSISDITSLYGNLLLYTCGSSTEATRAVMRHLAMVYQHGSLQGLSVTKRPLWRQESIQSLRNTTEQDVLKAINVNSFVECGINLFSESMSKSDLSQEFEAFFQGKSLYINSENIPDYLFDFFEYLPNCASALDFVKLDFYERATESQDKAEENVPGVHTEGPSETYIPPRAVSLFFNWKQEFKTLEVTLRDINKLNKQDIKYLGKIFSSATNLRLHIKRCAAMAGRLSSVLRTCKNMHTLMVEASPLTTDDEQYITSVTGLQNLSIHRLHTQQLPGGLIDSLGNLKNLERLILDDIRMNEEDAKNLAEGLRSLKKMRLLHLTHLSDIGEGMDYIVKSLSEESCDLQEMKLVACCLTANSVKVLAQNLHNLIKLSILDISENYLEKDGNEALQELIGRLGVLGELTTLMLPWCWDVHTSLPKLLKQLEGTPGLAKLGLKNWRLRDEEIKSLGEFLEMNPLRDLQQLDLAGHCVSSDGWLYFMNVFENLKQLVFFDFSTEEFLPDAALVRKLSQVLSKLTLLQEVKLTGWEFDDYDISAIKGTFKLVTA

[6] = molecular target: T1, AIM2 inflammasome (Mus musculus, UniProt Q91VJ1); experiment: Inhibition of AIM2 inflammasome; format: cell-based; conditions: LPS 1 μg/mL, poly(dA:dT) 4 μg/mL 4 h; 1 at 3 and 10 μM, 8 at 10 μM
T1 sequence (Q91VJ1 1-354): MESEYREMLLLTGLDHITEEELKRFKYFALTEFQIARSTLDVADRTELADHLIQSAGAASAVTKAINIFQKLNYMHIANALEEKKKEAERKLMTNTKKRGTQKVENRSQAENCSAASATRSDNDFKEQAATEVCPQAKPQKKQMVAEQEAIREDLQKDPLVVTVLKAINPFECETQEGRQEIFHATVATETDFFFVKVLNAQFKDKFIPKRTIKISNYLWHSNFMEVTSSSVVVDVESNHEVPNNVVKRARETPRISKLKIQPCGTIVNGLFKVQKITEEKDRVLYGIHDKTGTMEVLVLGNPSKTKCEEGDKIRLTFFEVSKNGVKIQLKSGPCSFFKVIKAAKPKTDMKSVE

[7] = molecular target: human recombinant NLRP3 protein; conditions: cited from earlier work
[8] = tested on: NLRP3 inflammasome; conditions: read-out: IC50 (potency as NLRP3 inhibitor); cited from earlier work

Chain of NLRP3 inflammasome (Mus musculus, UniProt Q8R4B8) (Q8R4B8 whole entry): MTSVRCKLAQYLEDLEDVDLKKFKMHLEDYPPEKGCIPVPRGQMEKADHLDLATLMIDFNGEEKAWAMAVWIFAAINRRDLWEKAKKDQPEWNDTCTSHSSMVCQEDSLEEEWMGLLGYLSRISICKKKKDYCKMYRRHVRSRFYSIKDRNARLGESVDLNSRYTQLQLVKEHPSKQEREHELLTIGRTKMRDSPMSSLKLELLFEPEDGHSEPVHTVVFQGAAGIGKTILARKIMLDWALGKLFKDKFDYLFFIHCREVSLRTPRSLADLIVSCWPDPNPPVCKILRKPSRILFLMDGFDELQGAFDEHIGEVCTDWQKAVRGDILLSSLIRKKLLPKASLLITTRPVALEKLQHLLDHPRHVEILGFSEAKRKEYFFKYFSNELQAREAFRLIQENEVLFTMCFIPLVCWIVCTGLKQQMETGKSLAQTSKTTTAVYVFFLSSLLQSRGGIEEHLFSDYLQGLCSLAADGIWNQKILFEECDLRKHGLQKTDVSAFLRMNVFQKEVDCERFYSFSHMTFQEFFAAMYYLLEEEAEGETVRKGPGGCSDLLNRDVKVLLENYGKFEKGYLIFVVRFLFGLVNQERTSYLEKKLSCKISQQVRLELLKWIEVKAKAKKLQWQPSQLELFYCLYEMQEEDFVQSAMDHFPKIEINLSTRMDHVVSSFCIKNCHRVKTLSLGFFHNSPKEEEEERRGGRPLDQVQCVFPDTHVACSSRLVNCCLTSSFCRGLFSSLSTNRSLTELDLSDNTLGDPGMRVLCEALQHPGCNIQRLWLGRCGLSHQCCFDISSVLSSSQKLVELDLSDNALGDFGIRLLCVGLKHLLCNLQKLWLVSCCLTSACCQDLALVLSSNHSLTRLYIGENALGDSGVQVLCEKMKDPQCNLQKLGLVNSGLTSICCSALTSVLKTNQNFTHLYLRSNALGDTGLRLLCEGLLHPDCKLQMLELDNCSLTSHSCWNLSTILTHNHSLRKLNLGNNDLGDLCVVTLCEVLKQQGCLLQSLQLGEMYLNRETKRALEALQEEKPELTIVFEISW

- decrease in inhibitory potency compared to 8 [1]: 2–3 fold
Structure (SMILES): COC(=O)c1ccc(-c2cn(Cc3cc(Br)ccc3OC)nn2)cc1 [Compound 33, Methyl 4-(1-(5-bromo-2-methoxybenzyl)-1H-1,2,3-triazol-4-yl)benzoate]

- inhibitory potency compared to 8 [1]: comparable potency
Structure (SMILES): COC(=O)c1ccc(-c2cn(Cc3cc(C(F)(F)F)ccc3OC)nn2)cc1 [Compound 34, Methyl 4-(1-(2-methoxy-5-(trifluoromethyl)benzyl)-1H-1,2,3-triazol-4-yl)benzoate]

- inhibitory potency compared to 8 [1]: decreased inhibitory potency
Structure (SMILES): CNC(=O)c1ccc(-c2cn(Cc3cc(Cl)ccc3OC)nn2)cc1 [Compound 13, 4-(1-(5-chloro-2-methoxybenzyl)-1H-1,2,3-triazol-4-yl)-N-methylbenzamide]

Structure (SMILES): CNS(=O)(=O)c1ccc(CCNC(=O)c2cc(Cl)ccc2OC)cc1 [JC124]
- metabolism / metabolic stability in mouse liver microsomes [2]: relatively better metabolic stability
- in vivo efficacy [3]: in vivo efficacy

- decrease in inhibitory potency compared to 8 [1]: 3–4 fold
Structure (SMILES): COC(=O)c1ccc(-c2cn(Cc3cc(Cl)ccc3OC)nn2)c(F)c1 [Compound 16, Methyl 4-(1-(5-chloro-2-methoxybenzyl)-1H-1,2,3-triazol-4-yl)-3-fluorobenzoate]

- decrease in inhibitory potency compared to 8 [1]: 3–4 fold
Structure (SMILES): COC(=O)c1ccc(-c2cn(Cc3cc(Cl)ccc3OC)nn2)c(C)c1 [Compound 15, Methyl 4-(1-(5-chloro-2-methoxybenzyl)-1H-1,2,3-triazol-4-yl)-3-methylbenzoate]

- inhibitory potency compared to 8 [1]: decreased inhibitory potency
Structure (SMILES): COc1ccc(Cl)cc1Cn1cc(-c2ccc(C(=O)N3CCC3)cc2)nn1 [Compound 14, Azetidin-1-yl(4-(1-(5-chloro-2-methoxybenzyl)-1H-1,2,3-triazol-4-yl)phenyl)methanone]

Structure (SMILES): COC(=O)c1ccc(-c2cn(Cc3ccccc3OC)nn2)cc1 [Compound 25, Methyl 4-(1-(2-methoxybenzyl)-1H-1,2,3-triazol-4-yl)benzoate]
- inhibitory potency compared to 8 [1]: ~3–7-fold decrease or complete loss of potency

- inhibitory potency compared to 8 [1]: decrease of inhibitory potency
Structure (SMILES): COC(=O)c1cccc(-c2cn(Cc3cc(Cl)ccc3OC)nn2)c1 [Compound 11, Methyl 3-(1-(5-chloro-2-methoxybenzyl)-1H-1,2,3-triazol-4-yl)benzoate]

- lower potency compared to 6 [1]: ~ 10 fold
Structure (SMILES): CCCOc1ccc(Cl)cc1Cn1cc(-c2ccc(C(=O)O)cc2)nn1 [Compound 7, 4-(1-(5-chloro-2-propoxybenzyl)-1H-1,2,3-triazol-4-yl)benzoic acid]

Structure (SMILES): CCCOc1ccc(Cl)cc1Cn1cc(-c2ccccc2)nn1 [Compound 1, 1-(5-chloro-2-propoxybenzyl)-4-phenyl-1H-1,2,3-triazole]
- interference with the priming by LPS [4]: did not show interference
- inhibition of the NLRC4 inflammasome [5]: only observed for the NLRC4 and AIM2 inflammasomes at higher concentrations
- inhibition of the AIM2 inflammasome [6]: only observed for the NLRC4 and AIM2 inflammasomes at higher concentrations

- inhibitory potency compared to 8 [1]: significantly less potent
Structure (SMILES): COc1ccc(Cl)cc1Cn1cc(-c2ccc(C(=O)O)cc2)nn1 [Compound 12, 4-(1-(5-chloro-2-methoxybenzyl)-1H-1,2,3-triazol-4-yl)benzoic acid]

- decrease in inhibitory potency compared to 8 [1]: 2–3 fold
Structure (SMILES): COC(=O)c1ccc(-c2cn(Cc3cc(F)ccc3OC)nn2)cc1 [Compound 32, Methyl 4-(1-(5-fluoro-2-methoxybenzyl)-1H-1,2,3-triazol-4-yl)benzoate]

Structure (SMILES): COC(=O)c1ccc(-c2cn(Cc3ccccc3)nn2)cc1 [Compound 24, Methyl 4-(1-benzyl-1H-1,2,3-triazol-4-yl)benzoate]
- inhibitory potency compared to 8 [1]: ~3–7-fold decrease or complete loss of potency

- inhibition of the NLRC4 inflammasome [5]: did not show inhibitory effects
- inhibition of the AIM2 inflammasome [6]: did not show inhibitory effects
Structure (SMILES): COC(=O)c1ccc(-c2cn(Cc3cc(Cl)ccc3OC)nn2)cc1 [Compound 8, Methyl 4-(1-(5-chloro-2-methoxybenzyl)-1H-1,2,3-triazol-4-yl)benzoate]

Structure (SMILES): COC(=O)c1ccc(-c2cn(Cc3cccc(Cl)c3)nn2)cc1 [Compound 26, Methyl 4-(1-(3-chlorobenzyl)-1H-1,2,3-triazol-4-yl)benzoate]
- inhibitory potency compared to 8 [1]: ~3–7-fold decrease or complete loss of potency

- decrease in inhibitory potency compared to 8 [1]: ~ 5 fold
Structure (SMILES): COC(=O)c1ccc(-c2cn(Cc3cc(Cl)ccc3O)nn2)cc1 [Compound 27, Methyl 4-(1-(5-chloro-2-hydroxybenzyl)-1H-1,2,3-triazol-4-yl)benzoate]

- inhibitory potency compared to 1 [1]: comparable potency
Structure (SMILES): CCCOc1ccc(Cl)cc1Cn1cc(-c2ccc(S(N)(=O)=O)cc2)nn1 [Compound 2, 4-(1-(5-chloro-2-propoxybenzyl)-1H-1,2,3-triazol-4-yl)benzenesulfonamide]

- inhibitory potency compared to 8 [1]: comparable potency
Structure (SMILES): COC(=O)c1ccc(-c2cn(Cc3cc(Cl)cc(OC)c3)nn2)cc1 [Compound 28, Methyl 4-(1-(3-chloro-5-methoxybenzyl)-1H-1,2,3-triazol-4-yl)benzoate]

Structure (SMILES): C#CCNS(=O)(=O)c1ccc(CCN(Cc2cc(Cl)ccc2OCCC)C(=O)Cc2ccsc2)cc1 [YQ128]
- metabolism / metabolic stability in mouse liver microsomes [2]: rapid metabolism
- Kd [7]: 117 nM
- IC50 [8]: 300 ± 10 nM
